From patent publication US5859019A, “Methods for protecting against cardiac ischemia by administering adenosine A2a receptor antagonists” (priority 1997, dated 1999)

How the values were obtained:
Type in all cases: cell-based
[1] = system: ventricular cells cultured from chick embryos; assay: Cyclic AMP level in cultured ventricular cells (radioimmunoassay); settings: Gallus gallus; isoproterenol 0.3 μM, forskolin 1 μM; n=6, ±S.E.; read-out: % increase in cAMP level
Method: (§1) Determination of ^45 Ca uptake was made according to a modification of previously described method (20). Cultures were incubated with L-(3, 4, 5-^3 H, N)-leucine (152.2 Ci/mmol) for a 24 hour prior to ^45 Ca uptake. [^3 H] leucine incorporated into the cellular protein allowed normalization of ^45 Ca content to mg cell protein. After incubation with ^45 Ca-containing medium, cells were then washed free of ^45 Ca and solubilized for 2 hours with 1% sodium dodecyl sulfate and 10 mM sodium borate and the levels of ^3 H and ^45 Ca were determined. For all data comparing the effect of different agents on ^45 Ca uptake, one-way ANOVA analysis followed by group comparison with t-test was carried out at each time point of the ^45 Ca uptake. Cyclic AMP level was determined according to a previously described radioimmunoassay (27).

[2] = system: ventricular cells cultured from chick embryos; assay: Hypoxia-induced injury / preconditioning of cultured ventricular cells (% cells killed, CK released); settings: for Ability to replace preconditioning hypoxia (protection against injury by ninety-minute hypoxia; % cells killed, CK released): agent given for 5 min in place of preconditioning hypoxia, before 90-min hypoxia, adenosine 10 μM, R-PIA 10 μM; for Ability to replace preconditioning hypoxia (protection against injury by ninety-minute hypoxia; % cells killed, CK released) / Effect on protection by preconditioning hypoxia (% cells killed, CK released): CGS21680 1 μM; for Effect on protection by preconditioning hypoxia (% cells killed, CK released): agent present during five-minute preconditioning hypoxia, CSC 1 μM, 8-SPT 100 μM, isoproterenol 0.3 μM, forskolin 1 μM, BayK 8644 0.1 μM
Method: Ventricular cells were cultured from chick embryos 14 days in ovo, according to a previously described procedure (20, 27). Cells were plated at a density of 400,000 cells per ml and cultivated in a humidified 5% CO2 -95% air mixture at 37° C. […] For preconditioning studies, the medium was changed to a HEPES-buffered medium containing (mM) 139 NaCl, 4.7 KCl, 0.5 MgCl2, 0.9 CaCl2, 5 HEPES (N-2-hydroxyethylpiperazine-N'-2-ethanesulfonic acid) and 2% fetal bovine serum, pH=7.4, 37° C. before exposing cells to the various conditions at 37° C. Control cells were maintained in the HEPES-buffered media under room air. Hypoxia was produced by placing the cells in a hypoxic incubator (NuAire) where O2 was replaced by N2. The % O2 was monitored by both an oxygen Fyrite Gas Analyzer (Bacharach) and an oxygen analyzer (Model OX630, Engineered Systems & Designs). Preconditioning was induced by exposing the cells to five minutes of hypoxia, termed preconditioning hypoxia, prior to a second ninety-minute hypoxia. Cells not subjected to preconditioning were exposed to ninety minutes of hypoxia only (nonpreconditioned cells). The extracellular pH was similarly maintained at 7.4 by HEPES in both preconditioned and nonpreconditioned cells. Determination of basal level of cell injury was made after parallel incubation of control cells under normal % O2. For preconditioned and nonpreconditioned cells, determination of cell injury was made at the end of the ninety-minute hypoxic period.
The extent of hypoxia-induced injury to the ventricular cell was quantitatively determined by the percentages of cells killed and by the amount of creatine kinase (CK) released into the media. To quantitate the % cells killed, cells were exposed to a trypsin-EDTA Hanks' balanced salt solution for 10 minutes for detachment after the various treatment, followed by centrifugation (300 × g for 10 minutes) and resuspension in culture media for counting in a hemocytometer. Only live cells sedimented and the cells counted represented those that survived (29). None of the sedimented cells subsequently counted included trypan blue. […] There was no protein or CK in the culture media following a second 300 × g centrifugation of resuspended cells previously treated with trypsin-EDTA. […] In contrast, the trypsin-EDTA media from cells exposed to 90 minutes of hypoxia contained substantial amount of proteins (0.15±0.03 mg, n=9) and CK activity (16±3 unit/mg protein, n=8). […] Because trypsin may cause further proteolysis of proteins and CK, the amount of protein and CK retained by the damaged cells in the trypsin-EDTA media may not accurately reflect those associated with the damaged cells. In support of the notion that exposure to 90 minutes of hypoxia caused significant cell injury and loss of membrane integrity, there was also marked release of LDH (hypoxia-exposed cells, 35.5±2.7, unit/mg, n=8, ±S.E. vs. control cells, 6.1±0.4 unit/mg, n=8) and proteins (hypoxia-exposed cells, 0.15±0.03 mg, n=8 vs. control cells, 0.034±0.01 mg, n=8) from the cells incubated under prolonged hypoxia. Thus, the cell viability assay separated out the hypoxia-damaged from the control normoxia-exposed cells. […] The amount of CK was measured as enzyme activity (unit/mg), and increases in CK activity above the control level were determined. The percentage of cells killed was calculated as the number of cells obtained from the control group (representing cells not subjected to any hypoxia or drug treatment) minus the number of cells from the treatment group divided by number of cells in control group multiplied by 100%.
To investigate the role of adenosine in mediating the preconditioning effect, the ventricular cells, instead of being exposed to the brief hypoxia, were incubated with adenosine (10 μM) for 5 minutes prior to the ninety minute hypoxia. In adenosine-treated cells, media were replaced with adenosine-free media for ten minutes prior to a ninety-minute hypoxic exposure. […]

[3] = system: ventricular cells cultured from chick embryos; assay: 45Ca uptake in cultured ventricular cells; settings: for Calcium influx into the cultured cells: isoproterenol 0.3 μM, forskolin 1 μM, BayK 8644 0.1 μM, data not shown
Method: as §1

| SMILES | activation at 1 µM [1] | Ability to replace preconditioning hypoxia (protection against injury by ninety-minute hypoxia; % cells killed, CK released) [2] | Effect on protection by preconditioning hypoxia (% cells killed, CK released) [2] | Calcium influx into the cultured cells [3] | activation at 0.3 µM [1] | Effect on attenuation of preconditioning by isoproterenol, forskolin and BayK 8644 ([2]; nifedipine 1 μM during preconditioning hypoxia) | Effect on CGS21680-induced attenuation of preconditioning ([2]; nifedipine 1 μM with CGS21680 during preconditioning hypoxia) | Effect on increase in calcium uptake by isoproterenol, forskolin and BayK 8644 ([3]; nifedipine) |
| --- | --- | --- | --- | --- | --- | --- | --- | --- |
| C=C[C@@]1(C)CC(=O)[C@]2(O)[C@@]3(C)[C@@H](O)CCC(C)(C)[C@@H]3[C@H](O)[C@H](OC(C)=O)[C@@]2(C)O1 [forskolin] | 54.8 ± 9.7% | Neither isoproterenol, forskolin nor BayK8644 had any effect on the level of protection | caused an increase in % cells killed and amount of CK released | induced increased calcium influx | – | – | – | – |
| CC(C)NCC(O)c1ccc(O)c(O)c1 (stereo not drawn) [isoproterenol] | – | Neither isoproterenol, forskolin nor BayK8644 had any effect on the level of protection | caused an increase in % cells killed and amount of CK released | induced increased calcium influx | 228 ± 31% | – | – | – |
| COC(=O)C1=C(C)NC(C)=C(C(=O)OC)C1c1ccccc1[N+](=O)[O-] [nifedipine] | – | did not simulate preconditioning | – | – | – | abolished | abolished the CGS21680-induced attenuation of cardioprotection | blocked the increase in calcium uptake |
